From patent US6410555B1, “Tetrahydronaphthyridinyl-carboxamides having anti-convulsant activity” (SmithKline Beecham p.l.c., priority 1998, dated 2002)

System: maximal (tonic hindlimb extension) electroshock seizures in male rats
Assay: Maximal electroshock seizure (MEST) threshold test, rat model
Type: in vivo
Conditions: 2 mg/kg p.o. at 2 h
Method: The maximal electroshock seizure (MEST) threshold test in rodents is particularly sensitive for detecting potential anti convulsant properties ^1. In this model anticonvulsant agents elevate the threshold to electrically-induced seizures whilst proconvulsants lower the seizure threshold. […] The threshold for maximal (tonic hindlimb extension) electroshock seizures in male rats (Sprague Dawley, 80-150 g 6 weeks old) was determined by a Hugo Sachs Electronik stimulator which delivered a constant current (0.3 sec duration; from 1-30 mA in steps of […]). The procedure is similar to that outlined above for mouse and full details are as published by Upton et al,.^4 The percentage increase or decrease in CC50 for each group compared to the control is calculated. […]

| Structure (SMILES) | percentage increase in CC50 compared to the control [%] |
| --- | --- |
| COc1ccc(C(=O)Nc2cnc3c(c2)CN(C)CC3(C)C)cc1C(F)(F)F.Cl [Example 3, N-(5,6,7,8-Tetrahydro-6,8,8-trimethyl[1,6]naphthyridin-3-yl)-4-methoxy-3-trifluoromethylbenzamide Hydrochloride] | 314 |
| CCOc1ccc(C(=O)Nc2cnc3c(c2)CN(C)CC3(C)C)cc1Br.Cl [Example 5, N-(5,6,7,8-Tetrahydro-6,8,8-trimethyl[1,6]naphthyridin-3-yl)-3-bromo-4-ethoxybenzamide Hydrochloride] | 350 |
